According to publication PMC7465886, “4-(N-Alkyl- and -Acyl-amino)-1,2,4-triazole-3-thione Analogs as Metallo-β-Lactamase Inhibitors: Impact of 4-Linker on Potency and Spectrum of Inhibition” (Biomolecules, 2020):
Like-named read-outs stand apart in the source and are kept apart here.

Columns and labels:
IMP-1 [1] = target: T1, IMP-1 (Serratia marcescens, UniProt P52699); test: MBL inhibition, reporter substrate method, IMP-1; format: biochemical; conditions: for Ki: value in parentheses, analogs of compounds 5 and 6 (this work), read-out: Ki Value IMP-1, corresponding hydrazone-like compound
T1 construct: made in house; host or cells: E. coli BL21(DE3) derivative, pET-9a
T1 sequence (P52699 19-246 limits assumed): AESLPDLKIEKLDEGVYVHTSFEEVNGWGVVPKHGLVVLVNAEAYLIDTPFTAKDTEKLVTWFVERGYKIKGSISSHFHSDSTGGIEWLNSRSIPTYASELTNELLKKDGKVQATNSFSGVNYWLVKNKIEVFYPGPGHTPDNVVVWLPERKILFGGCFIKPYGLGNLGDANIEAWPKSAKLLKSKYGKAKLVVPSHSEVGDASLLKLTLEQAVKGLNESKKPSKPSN
Procedure: (§1) Compounds were prepared in DMSO at a final concentration of 50 mM prior to dilution in the assay buffer. The reaction rate was measured as the variation of absorbance observed upon substrate hydrolysis in a UV-Vis spectrophotometer or microplate reader at a wavelength of 300 nm (imipenem, meropenem), 260 nm (cefotaxime), or 482 nm (nitrocefin) and in the presence of a purified MBL enzyme (such as VIM-1, VIM-2, VIM-4, NDM-1, and IMP-1, at a final concentration ranging from 1 to 70 nM).
(§2) These enzymes were overproduced in derivatives of E. coli BL21(DE3) carrying a pET-9 a (IMP-1, VIM-1, VIM-2, and VIM-4) or pET-15 b (NDM-1) vector into which the metallo-β-lactamase-encoding open reading frame was cloned. Bacterial strains were grown in the auto-inducing medium, ZYP-5052, supplemented with 50 μg/mL kanamycin for 24 h at 37 °C [38]. IMP-1, VIM-1, VIM-2, and VIM-4 were purified by ion-exchange and gel filtration chromatography using an AKTA Purifier platform (GE Healthcare, Uppsala, Sweden) as previously described. NDM-1 (residues 37-270) was produced as an amino-terminal 6 xHis-tag fusion protein and was purified using affinity chromatography. After growth for 26 h at 25 °C, bacterial cells were harvested by centrifugation (10,000× g, 30 min, 4 °C), resuspended in 10 mM HEPES buffer (pH 7.5) containing 0.15 M NaCl (buffer A) in one-fifth of the original culture volume, and lysed by sonication. Cellular debris was removed by centrifugation (12,000× g, 40 min, 4 °C). The clarified sample was loaded on a HisTrap HP column (bed volume, 5 mL; GE Healthcare), followed by a wash step (25 mL) with buffer A containing 20 mM imidazole. Proteins were eluted using buffer A containing 350 mM imidazole. The resulting protein sample was desalted (HiPrep 26/10 Desalting column, GE Healthcare) using 20 mM triethanolamine (pH 7.2) supplemented with 50 μM ZnSO4 and concentrated using an Amicon Ultra-15 (MW cut-off, 10 kDa; Millipore, Burlington, MA, USA). The concentrated sample was loaded on a Superdex 75 prep grade column (XK16/100 column; bed volume, 140 mL; GE Healthcare) and the proteins eluted with buffer A containing 50 μM ZnSO4. The active fractions were pooled and stored at −20 °C. The purity of the protein preparations was estimated >95% by SDS-PAGE analysis. The authenticity of the enzyme preparations was confirmed by electron spray ionization mass spectrometry, as previously described.
(§3) The inhibition constants (Ki) were determined on the basis of a model of competitive inhibition by analyzing the dependence of the ratio v0/vi (v0, hydrolysis velocity in the absence of inhibitor; vi, hydrolysis velocity in the presence of inhibitor) as a function of [I] as already described. The slope of the plot of v0/vi vs. [I], which corresponds to Km^S/(Km^S + [S])Ki (where Km^S is the Km value of the reporter substrate and [S] its concentration in the reaction mixture) and allowed the calculation of the Ki value. Alternatively, a Dixon plot analysis was carried out by measuring the initial hydrolysis rates in the presence of variable concentrations of inhibitor and substrate. This allowed Ki values to be determined and supported the hypothesis that the various compounds behaved as competitive inhibitors of the various tested enzymes. The assays were performed in triplicate.

VIM-2 [2] = target: T2, VIM-2 (Escherichia coli, UniProt Q5U7L7); test: MBL inhibition, reporter substrate method, VIM-2; format: biochemical
T2 construct: made in house; host or cells: E. coli BL21(DE3) derivative, pET-9a
Procedure: as §1, §2, §3

NDM-1 [3] = target: T3, NDM-1 (Klebsiella pneumoniae, UniProt C7C422); test: MBL inhibition, reporter substrate method, NDM-1; format: biochemical
T3 sequence (C7C422 37-270 limits assumed): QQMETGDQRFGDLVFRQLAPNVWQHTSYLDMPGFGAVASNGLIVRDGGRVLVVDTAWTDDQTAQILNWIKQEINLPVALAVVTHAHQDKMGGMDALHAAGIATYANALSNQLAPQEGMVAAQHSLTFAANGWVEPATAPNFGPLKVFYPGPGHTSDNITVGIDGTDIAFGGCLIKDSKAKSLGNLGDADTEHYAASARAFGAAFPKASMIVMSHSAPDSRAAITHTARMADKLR
Procedure: as §1, §2, §3

VIM-2 [4] = target: T2, VIM-2; conditions: cited from earlier work; for Ki: Schiff base analogs, read-out: Ki Value VIM-2, hydrazone-like compound (converted); for Inhibition of VIM-2 (dash in Ki column), corresponding hydrazone-like compound: in parentheses, 100 μM inhibitor
NDM-1 [5] = target: T3, NDM-1; design: method as in PMID 32937203; conditions: cited from earlier work; for Inhibition of NDM-1 (dash in Ki column), corresponding hydrazone-like compound: in parentheses, 100 μM inhibitor; for Ki: Schiff base analogs, read-out: Ki Value NDM-1, hydrazone-like compound (converted)
IMP-1 [6] = target: T1, IMP-1; design: method as in PMID 32937203; conditions: cited from earlier work; for Inhibition of IMP-1 (dash in Ki column), corresponding hydrazone-like compound: in parentheses, 100 μM inhibitor; for Ki: value in parentheses, read-out: Ki Value IMP-1, corresponding hydrazone-like compound (converted)
[7] = tested on: E. coli LZ2310(pLBII-VIM-2); test: microbe, parasite or virus in culture; format: cell-based, Escherichia coli; conditions: 220 μg added to 30 μg cefoxitin disk (positive control)
Procedure: The potential activity of selected compounds was assessed by the agar disk-diffusion method, according to the CLSI (Clinical Laboratory Standard Institute) recommendations, using Mueller–Hinton medium. The inhibitor (dissolved in DMSO) was added (maximum volume of 15 μL) to a commercially available disk containing a defined amount of a β-lactam antibiotic (30 μg of cefoxitin (Oxoid, Milan, Italy)). After incubation (18 h at 35 °C), the diameter of the growth inhibition zone was measured and compared to that obtained in the absence of inhibitor. DMSO and EDTA (220 μg) were used as negative and positive controls, respectively. Experiments were performed in triplicate.
These tests were performed on an isogenic laboratory strain obtained after transforming Escherichia coli LZ2310 strain with a derivative of the high copy number plasmid pLB-II carrying the cloned blaVIM-2 gene harboring a cloned gene encoding the functional metallo-β-lactamase. Strain LZ2310 is a triple knockout mutant derived from K12 in which the genes encoding for components of the three major efflux pump systems were inactivated (genotype, ∆norE ∆mdfA N43 acrA1) and was used to generate an hyperpermeable background for MBL production and investigate the potential contribution of such mechanisms to inhibitor efflux.

[8] = read-out: Percentage of Inhibition at 100 μM Inhibitor, IMP-1 (dash)
[9] = read-out: Percentage of Inhibition at 100 μM Inhibitor, VIM-2 (dash)
[10] = read-out: Percentage of Inhibition at 100 μM Inhibitor, NDM-1 (dash)
[11] = read-out: Inhibition of IMP-1 (dash in Ki column)
[12] = read-out: Inhibition of VIM-2 (dash in Ki column)
[13] = read-out: Inhibition of NDM-1 (dash in Ki column)
[14] = value in parentheses, analogs of compounds 5 and 6 (this work), read-out: Ki Value NDM-1, corresponding hydrazone-like compound

SMILES: O=C(O)c1ccccc1C(=O)Nn1c(-c2ccccc2)n[nH]c1=S [Compound 17]
- inhibition at 100 µM (IMP-1 [1]; [8]): < 20%
- Ki (VIM-2 [2]; hydrazine and hydrazide series, read-out: Ki Value VIM-2): > 100 µM
- inhibition at 100 µM (VIM-2 [2]; [9]): < 20%
- inhibition at 100 µM (NDM-1 [3]; [10]): < 20%

SMILES: O=C(O)c1ccccc1C=Nn1c(CCc2ccccc2)n[nH]c1=S [hydrazone-like analog of 8]
- Ki (VIM-2 [4]): 7000 nM
- Inhibition of NDM-1 (dash in Ki column), corresponding hydrazone-like compound (NDM-1 [5]): - (-) (<40% of inhibition in the presence of 100 μM inhibitor)
- Inhibition of IMP-1 (dash in Ki column), corresponding hydrazone-like compound (IMP-1 [6]): - (-) (<40% of inhibition in the presence of 100 μM inhibitor)

SMILES: O=[N+]([O-])c1ccccc1CNn1c(CCc2ccccc2)n[nH]c1=S [Compound 9]
- inhibition at 100 µM (IMP-1 [1]; [11]): < 40%
- inhibition at 100 µM (VIM-2 [2]; [12]): < 40%
- inhibition at 100 µM (NDM-1 [3]; [13]): < 40%

SMILES: O=C(O)c1ccccc1CNn1c(CC(c2ccccc2)c2ccccc2)n[nH]c1=S [Compound 11]
- inhibition at 100 µM (IMP-1 [1]; [11]): < 40%
- inhibition at 100 µM (VIM-2 [2]; [12]): < 40%
- Inhibition of NDM-1 (in words) (NDM-1 [3]): moderately inhibited
- Ki (NDM-1 [3]; hydrazine series, read-out: Ki Value NDM-1): 16.4 ± 2.6 µM

SMILES: O=[N+]([O-])c1ccccc1C=Nn1c(CCc2ccccc2)n[nH]c1=S [hydrazone-like analog of 9]
- Inhibition of VIM-2 (dash in Ki column), corresponding hydrazone-like compound (VIM-2 [4]): - (-) (<40% of inhibition in the presence of 100 μM inhibitor)
- Inhibition of NDM-1 (dash in Ki column), corresponding hydrazone-like compound (NDM-1 [5]): - (-) (<40% of inhibition in the presence of 100 μM inhibitor)
- Inhibition of IMP-1 (dash in Ki column), corresponding hydrazone-like compound (IMP-1 [6]): - (-) (<40% of inhibition in the presence of 100 μM inhibitor)

SMILES: Cc1ccccc1-c1n[nH]c(=S)n1N=Cc1ccccc1C(=O)O [hydrazone-like analog of 2]
- Ki (VIM-2 [4]): 3000 nM
- Inhibition of NDM-1 (dash in Ki column), corresponding hydrazone-like compound (NDM-1 [5]): - (-) (<40% of inhibition in the presence of 100 μM inhibitor)
- Ki (IMP-1 [6]): 58 µM

SMILES: O=C(O)c1ccccc1C(=O)Nn1c(Cc2ccccc2)n[nH]c1=S [Compound 18]
- inhibition at 100 µM (IMP-1 [1]; [8]): < 20%
- inhibition at 100 µM (VIM-2 [2]; [9]): < 20%
- inhibition at 100 µM (NDM-1 [3]; [10]): < 20%

SMILES: O=C(O)c1ccccc1C=Nn1c(Cc2ccc3ccccc3c2)n[nH]c1=S [hydrazone-like analog of 7]
- Ki (VIM-2 [4]): 2400 nM
- Ki (NDM-1 [5]): 1600 nM
- Ki (IMP-1 [6]): 34 µM

SMILES: O=C(O)c1ccccc1CNn1c(COc2ccc3ccccc3c2)n[nH]c1=S [Compound 12]
- inhibition at 100 µM (IMP-1 [1]; [11]): < 40%
- inhibition at 100 µM (VIM-2 [2]; [12]): < 40%
- inhibition at 100 µM (NDM-1 [3]; [13]): < 40%

SMILES: O=C(O)c1ccc(C=Nn2c(CCc3ccccc3)n[nH]c2=S)cc1 [hydrazone-like analog of 10]
- Inhibition of VIM-2 (dash in Ki column), corresponding hydrazone-like compound (VIM-2 [4]): - (-) (<40% of inhibition in the presence of 100 μM inhibitor)
- Inhibition of NDM-1 (dash in Ki column), corresponding hydrazone-like compound (NDM-1 [5]): - (-) (<40% of inhibition in the presence of 100 μM inhibitor)
- Ki (IMP-1 [6]): 11 µM

SMILES: O=C(O)c1ccccc1CNn1c(CCc2ccccc2)n[nH]c1=S [Compound 8]
- inhibition at 100 µM (IMP-1 [1]; [11]): < 40%
- inhibition at 100 µM (VIM-2 [2]; [12]): < 40%
- inhibition at 100 µM (NDM-1 [3]; [13]): < 40%

SMILES: O=C(O)c1ccc(CNn2c(CCc3ccccc3)n[nH]c2=S)cc1 [Compound 10]
- inhibition at 100 µM (IMP-1 [1]; [11]): < 40%
- inhibition at 100 µM (VIM-2 [2]; [12]): < 40%
- inhibition at 100 µM (NDM-1 [3]; [13]): < 40%

SMILES: O=C(O)c1ccccc1C=Nn1c(COc2ccc3ccccc3c2)n[nH]c1=S [hydrazone-like analog of 12]
- Ki (VIM-2 [4]): 2000 nM
- Ki (NDM-1 [5]): 2400 nM
- Inhibition of IMP-1 (dash in Ki column), corresponding hydrazone-like compound (IMP-1 [6]): - (-) (<40% of inhibition in the presence of 100 μM inhibitor)

SMILES: O=C(O)c1ccccc1C=Nn1c(CC(c2ccccc2)c2ccccc2)n[nH]c1=S [hydrazone-like analog of 11]
- Ki (VIM-2 [4]): 25000 nM
- Ki (NDM-1 [5]): 2700 nM
- Inhibition of IMP-1 (dash in Ki column), corresponding hydrazone-like compound (IMP-1 [6]): - (-) (<40% of inhibition in the presence of 100 μM inhibitor)

SMILES: O=C(O)CN(CCN(CC(=O)O)CC(=O)O)CC(=O)O [EDTA, reference compound]
- Inhibition Zone Diameter [7]: 28 mm

SMILES: O=C(O)CCC(=O)Nn1c(-c2cccc(-c3ccccc3)c2)n[nH]c1=S [Compound 20]
- inhibition at 100 µM (IMP-1 [1]; [8]): < 20%
- inhibition at 100 µM (VIM-2 [2]; [9]): < 20%
- inhibition at 100 µM (NDM-1 [3]; [10]): < 20%

SMILES: O=C(O)c1ccccc1C=Nn1c(-c2cc3ccccc3[nH]2)n[nH]c1=S [hydrazone-like analog of 5]
- Ki (IMP-1 [1]): 55 µM
- inhibition at 100 µM (VIM-2 [2]; read-out: Inhibition of VIM-2 (dash in Ki column), corresponding hydrazone-like compound): < 40%
- Ki (NDM-1 [3]; [14]): 9.4 µM

SMILES: O=C(O)c1ccccc1C=Nn1c(-c2ccc3ccccc3c2)n[nH]c1=S [hydrazone-like analog of 4]
- Ki (VIM-2 [4]): 700 nM
- Ki (NDM-1 [5]): 2300 nM
- Ki (IMP-1 [6]): 6.9 µM

SMILES: O=C(O)c1ccccc1C=Nn1c(-c2cccc(-c3ccccc3)c2)n[nH]c1=S [hydrazone-like analog of 3]
- Ki (VIM-2 [4]): 200 nM
- Ki (NDM-1 [5]): 4200 nM
- Ki (IMP-1 [6]): 18 µM

SMILES: O=C(O)c1ccccc1C=Nn1c(Cc2ccccc2)n[nH]c1=S [hydrazone-like analog of 6]
- Ki (IMP-1 [1]): 28 µM
- Ki (VIM-2 [2]; value in parentheses, analogs of compounds 5 and 6 (this work), read-out: Ki Value VIM-2, corresponding hydrazone-like compound (converted)): 3.2 µM
- Ki (NDM-1 [3]; [14]): 42 µM

SMILES: O=C(O)c1ccccc1CNn1c(-c2cc3ccccc3[nH]2)n[nH]c1=S [Compound 5]
- inhibition at 100 µM (IMP-1 [1]; [11]): < 40%
- inhibition at 100 µM (VIM-2 [2]; [12]): < 40%
- inhibition at 100 µM (NDM-1 [3]; [13]): < 40%
